# Data published in ChEMBL document CHEMBL1201862, “PubChem BioAssay data set” (2004).
# Values joined by “and” are separate entries in the source; they are usually repeats but may differ in a detail not shown here. Identical values can stand only once. Active and inactive are the calls of the source. Cut-off read from the data, not from the text of the source, for most assays here: actives have a measured EC50 and inactives only a lower limit.
# Columns and labels:
# [1] = target: T1, Heat shock factor protein 1 (Mus musculus, UniProt P38532); test: decrease of HSF1-responsive luciferase luminescence – cell-based, NIH3T3, dose retest, confirmation (AID 2382); assay type: functional;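 note: NIH3T3 fibroblasts with HSF1-driven luciferase reporter stressed by proteasome inhibitor MG132; luminescence from HSF1-driven luciferase expression after 8 hours of MG132 stress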
# T1 sequence (P38532 whole entry): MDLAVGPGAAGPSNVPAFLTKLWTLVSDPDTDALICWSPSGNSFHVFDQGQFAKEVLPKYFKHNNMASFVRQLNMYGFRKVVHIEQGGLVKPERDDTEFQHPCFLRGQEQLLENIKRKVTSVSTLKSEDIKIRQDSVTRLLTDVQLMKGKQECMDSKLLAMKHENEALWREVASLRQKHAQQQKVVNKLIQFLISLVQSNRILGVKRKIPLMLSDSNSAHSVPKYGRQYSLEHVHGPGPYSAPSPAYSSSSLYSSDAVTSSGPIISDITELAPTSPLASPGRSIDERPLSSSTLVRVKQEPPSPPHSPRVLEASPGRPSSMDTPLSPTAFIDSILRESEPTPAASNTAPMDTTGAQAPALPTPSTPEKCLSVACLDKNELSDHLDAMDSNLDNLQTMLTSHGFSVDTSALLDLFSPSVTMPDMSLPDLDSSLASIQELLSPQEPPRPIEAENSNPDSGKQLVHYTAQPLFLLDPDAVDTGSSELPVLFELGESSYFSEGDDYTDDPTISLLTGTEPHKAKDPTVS
# [2] = NIH3T3 cell viability loss – ATP luminescence, mouse fibroblasts, counter-screen, dose response (AID 2010); assay type: functional, cell-based;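 note: cells exposed to compound for about 90 hours before reading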
# [3] = Trypanosoma cruzi growth suppression in host cells – NIH3T3 host cells, beta-gal luminescence, confirmation (AID 2044); assay type: functional, cell-based;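 note: intracellular parasites grown in NIH/3T3 mouse fibroblasts as host cells; luminescent beta-galactosidase reporter signal from transgenic T. cruzi replicating inside host cells; inhibitors lower the luminescence signal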
# Streptokinase A = target: T2, Streptokinase A (Streptococcus pyogenes serotype M1, UniProt P10520); test: viability-normalized secreted streptokinase activity reduction – plasminogen activation absorbance, OD405, dose response (AID 1914); assay type: functional, Streptococcus pyogenes M1 GAS;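 note: secreted streptokinase activity via plasminogen activation per viability signal from cell pellet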
# T2 sequence (P10520 whole entry): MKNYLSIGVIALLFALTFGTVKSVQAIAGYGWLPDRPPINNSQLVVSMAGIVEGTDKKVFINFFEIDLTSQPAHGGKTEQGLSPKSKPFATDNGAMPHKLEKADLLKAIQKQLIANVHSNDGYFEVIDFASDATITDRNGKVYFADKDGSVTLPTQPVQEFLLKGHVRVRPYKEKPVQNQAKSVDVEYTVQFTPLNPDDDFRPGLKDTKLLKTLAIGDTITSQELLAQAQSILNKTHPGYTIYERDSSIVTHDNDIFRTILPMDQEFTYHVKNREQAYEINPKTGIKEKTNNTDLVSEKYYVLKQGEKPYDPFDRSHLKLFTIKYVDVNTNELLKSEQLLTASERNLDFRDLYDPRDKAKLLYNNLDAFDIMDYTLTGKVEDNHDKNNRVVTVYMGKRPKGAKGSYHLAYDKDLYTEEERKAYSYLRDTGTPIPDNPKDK
# [4] = system: Streptococcus sp. 'group A'; test: Streptococcus pyogenes SK(-)GAS viability under kanamycin – luminescence, BacTiterGlo, confirmation, counter-screen for streptokinase expression inhibitor project, dose response (AID 1900); assay type: functional, organism-based
# Streptococcus = test: GAS UMAA2166 growth inhibition – luminescence, BacTiterGlo, counter-screen for streptokinase expression inhibitor project, dose response (AID 1915); assay type: functional, organism-based;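 note: potency for reduction of bacterial viability or growth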
# Cytochrome P450 3A4 = Cytochrome P450 3A4 (Homo sapiens, UniProt P08684);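 note: CYP3A4 tested as one member of a cytochrome P450 panel screen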
# Sequence of Cytochrome P450 3A4 (P08684 whole entry): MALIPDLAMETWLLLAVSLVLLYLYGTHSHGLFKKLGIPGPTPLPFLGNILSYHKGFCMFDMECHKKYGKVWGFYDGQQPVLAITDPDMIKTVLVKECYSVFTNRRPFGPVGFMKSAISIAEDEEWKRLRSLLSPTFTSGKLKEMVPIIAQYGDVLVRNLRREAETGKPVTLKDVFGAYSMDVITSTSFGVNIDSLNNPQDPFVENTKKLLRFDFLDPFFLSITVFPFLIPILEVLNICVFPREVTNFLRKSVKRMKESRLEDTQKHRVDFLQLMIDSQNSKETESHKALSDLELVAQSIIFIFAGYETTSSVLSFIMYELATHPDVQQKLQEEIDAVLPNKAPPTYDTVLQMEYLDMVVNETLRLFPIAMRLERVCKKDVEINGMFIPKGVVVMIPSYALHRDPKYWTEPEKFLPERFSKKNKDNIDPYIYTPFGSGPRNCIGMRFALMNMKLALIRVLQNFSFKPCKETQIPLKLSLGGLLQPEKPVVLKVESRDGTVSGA
# [5] = target: T3, Corticotropin-releasing factor receptor 2/Corticotropin-releasing factor-binding protein (Homo sapiens, UniProt P24387+Q13324); test: activators of CRF receptor 2 with binding protein – uHTS hits, confirmation (AID 602473); assay type: functional; settings: read-out: EC50_Mean
# T3 sequence (Q13324 whole entry): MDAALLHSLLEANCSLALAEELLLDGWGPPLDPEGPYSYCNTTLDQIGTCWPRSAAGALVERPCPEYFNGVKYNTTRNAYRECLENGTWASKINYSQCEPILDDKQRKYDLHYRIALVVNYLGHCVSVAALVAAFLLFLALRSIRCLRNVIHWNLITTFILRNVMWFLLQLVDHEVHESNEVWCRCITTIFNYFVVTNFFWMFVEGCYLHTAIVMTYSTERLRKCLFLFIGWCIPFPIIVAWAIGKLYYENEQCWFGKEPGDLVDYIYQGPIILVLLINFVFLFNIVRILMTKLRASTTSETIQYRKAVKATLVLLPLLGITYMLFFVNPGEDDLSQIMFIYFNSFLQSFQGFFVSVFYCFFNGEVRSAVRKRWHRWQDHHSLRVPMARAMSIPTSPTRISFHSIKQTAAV
# T3 sequence (P24387 whole entry): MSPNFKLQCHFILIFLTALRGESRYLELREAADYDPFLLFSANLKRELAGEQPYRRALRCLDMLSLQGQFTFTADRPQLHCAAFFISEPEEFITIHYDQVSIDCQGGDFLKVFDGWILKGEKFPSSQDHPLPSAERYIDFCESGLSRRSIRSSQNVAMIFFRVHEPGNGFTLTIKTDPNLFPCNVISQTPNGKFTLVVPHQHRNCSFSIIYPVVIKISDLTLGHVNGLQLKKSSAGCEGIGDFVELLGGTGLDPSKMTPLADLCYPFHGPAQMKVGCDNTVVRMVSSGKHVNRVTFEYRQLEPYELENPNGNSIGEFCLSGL
# Cytochrome P450 2C9 = Cytochrome P450 2C9 (Homo sapiens, UniProt P11712)
# Sequence of Cytochrome P450 2C9 (P11712 whole entry): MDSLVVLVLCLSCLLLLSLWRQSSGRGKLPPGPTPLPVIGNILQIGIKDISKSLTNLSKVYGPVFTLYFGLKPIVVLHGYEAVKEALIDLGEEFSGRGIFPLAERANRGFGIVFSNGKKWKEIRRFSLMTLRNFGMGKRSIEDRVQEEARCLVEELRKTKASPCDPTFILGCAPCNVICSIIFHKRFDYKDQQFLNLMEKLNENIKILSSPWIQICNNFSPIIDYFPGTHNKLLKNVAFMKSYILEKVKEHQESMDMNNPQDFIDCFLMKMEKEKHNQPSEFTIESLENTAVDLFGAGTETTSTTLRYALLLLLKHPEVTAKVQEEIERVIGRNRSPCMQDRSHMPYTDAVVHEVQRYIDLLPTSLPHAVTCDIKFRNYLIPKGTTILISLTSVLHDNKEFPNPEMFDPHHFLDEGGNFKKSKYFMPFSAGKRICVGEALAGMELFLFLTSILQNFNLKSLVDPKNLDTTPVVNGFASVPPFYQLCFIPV
smiles,measurement,setting,value
O=S(=O)(/N=C(/c1ccccc1Cl)N1CCOCC1)c1ccccc1,EC50,[1],> 195 µM (not active)
CCC(C)NCCOCCOc1ccc(F)cc1 (configuration not stated),EC50,[2],10.7 µM (active)
same,EC50,[3],0.806 µM (active)
COc1ccc(-c2noc(-c3ccccc3-c3ccccc3)n2)cc1,EC50,Streptokinase A,17.8 µM (active)
same,EC50,[4],32.9 µM (active)
same,EC50,Streptococcus,> 150 µM (not active)
CN1CCC(N(C)CC(=O)Nc2cccc(Oc3ccccc3)c2)CC1,EC50,[2],> 60 µM (not active)
same,EC50,[3],< 0.1 µM (active)
C#CCCCO/N=C1/C[C@@H](O)[C@@H](O)[C@@H]2[C@@H]3C(=O)N(C[C@@H]4CCCO4)C(=O)[C@H]3CC[C@@H]12,AC50,Cytochrome P450 3A4,3.98 µM (inconclusive)
N#Cc1c(O)nc(SCc2ccc(Cl)cc2)nc1-c1ccccc1,EC50,[4],11.4 µM (active)
same,EC50,Streptococcus,14.1 µM (active)
Oc1ccc2ccccc2c1CN1CCCCC1,EC50,[5],3.84 µM (active)
CC(C)Oc1ccc2c(=O)c3cc(C(=O)O)ccc3oc2c1,AC50,Cytochrome P450 2C9,31.6 µM (inconclusive)
O=C(/C=C/c1ccc([N+](=O)[O-])cc1)Oc1ccc(/C=N/NC(=O)c2ccncc2)cc1,EC50,[2],> 60 µM (not active)
same,EC50,[3],9.25 µM (active)
C[C@H](NC(=O)c1ccc(Cl)c(Cl)c1)c1ccc(-c2ccccc2)cc1,AC50,Cytochrome P450 2C9,3.16 µM (inconclusive)
Nc1c2c(nc3ccccc13)CSCC2,EC50,[2],> 30 µM (not active)
same,EC50,[3],3.33 µM (active)
O=C(CNS(=O)(=O)c1ccccc1F)Nc1ccc(N2CCOCC2)cc1,EC50,[1],> 195 µM (not active)
CC(=O)N=C(Nc1ccc2ccccc2c1)Nc1nc(C)cc(C)n1,EC50,[1],146 µM (active)
C=CCn1c(NCc2cc(Cl)ccc2O)nc2ccccc21,EC50,Streptokinase A,> 150 µM (not active)
same,EC50,[4],> 150 µM (not active)
same,EC50,Streptococcus,> 150 µM (not active)
CCOC(=O)CC1C(=O)NCCN1S(=O)(=O)c1ccc(Cl)c(Cl)c1 (configuration not stated),AC50,Cytochrome P450 3A4,12.6 µM (inconclusive)
Nc1c(C(=O)NCc2ccccc2)sc2nc3c(cc12)C(=O)CCC3,AC50,Cytochrome P450 3A4,25.1 µM (inconclusive)
same,AC50,Cytochrome P450 2C9,1.41 µM (inconclusive)
C=CCSc1nc2ccccc2c(=O)n1Cc1ccccc1,EC50,Streptokinase A,> 150 µM (not active)
same,EC50,[4],15.7 µM (active)
same,EC50,Streptococcus,99.4 µM (active)
CCN(CC)C(=O)c1cnc2ccc(S(=O)(=O)Nc3cc(C)cc(C)c3)cc2c1O,EC50,[5],4.85 µM (active)
O=C(COc1c(Cl)cccc1Cl)Nc1ccccc1N1CCCC1,EC50,Streptokinase A,16.1 µM (active)
same,EC50,[4],16.4 µM (active)
same,EC50,Streptococcus,> 150 µM (not active)
Cc1ccc2c(CC(=O)Nc3sccc3C(N)=O)coc2c1,EC50,[5],> 53 µM (inactive)
Cc1ccc(C)c(NC(=O)NCc2ccc(Cl)cc2)c1,AC50,Cytochrome P450 3A4,2.51 µM (inconclusive)
CC(C)Sc1cc(N2CCCC2)nc(-c2ccc(F)cc2)n1,EC50,Streptokinase A,10.9 µM (active)
same,AC50,Cytochrome P450 3A4,17.8 µM (inconclusive)
same,EC50,[4],6.81 µM (active)
same,AC50,Cytochrome P450 2C9,7.94 µM (inconclusive)
same,EC50,Streptococcus,23.8 µM (active)
Cc1cc(NC(=O)CN2C(=O)c3ccccc3C2=O)no1,EC50,Streptokinase A,> 150 µM (not active)
same,EC50,[4],> 150 µM (not active)
same,EC50,Streptococcus,> 150 µM (not active)
C=CCn1c(=O)c(C(=O)NCCN(CC)CC)c(O)c2ccccc21,AC50,Cytochrome P450 2C9,8.91 µM (inconclusive)
CC(C)(C)c1cccc(Oc2nn[nH]n2)c1,AC50,Cytochrome P450 3A4,22.4 µM (inconclusive)
same,AC50,Cytochrome P450 2C9,25.1 µM (inconclusive)
Cc1sc(N)c(C(=O)c2cccc(C(F)(F)F)c2)c1C,AC50,Cytochrome P450 3A4,12.6 µM (inconclusive)
NC(=S)N/N=C/c1ccc2ccccc2c1,EC50,[2],> 60 µM (not active)
same,EC50,[3],0.858 µM (active)
CC(Nc1nc(-c2ccccc2O)nc2ccccc12)c1ccccc1 (configuration not stated),EC50,Streptokinase A,8.55 µM (active)
same,EC50,[4],9.99 µM (active)
same,EC50,Streptococcus,> 150 µM (not active)
CCOC(=O)CCCNS(=O)(=O)c1c(C)ccc2nsnc12,EC50,[1],53.4 µM (active)
CCOC(=O)Cn1cc(C=C2C(=O)N(C)C(=O)N(C)C2=O)c2ccccc21,EC50,[5],5.34 µM (active)
Cc1ccc(S(=O)(=O)Nc2cc(C)c(O)c(S(=O)(=O)c3ccc(C)cc3)c2)cc1,EC50,Streptokinase A,> 150 µM (not active)
same,EC50,[4],39.6 µM (active)
same,EC50,Streptococcus,> 150 µM (not active)
C=CCNCCOCCOc1ccc(C)cc1[N+](=O)[O-],AC50,Cytochrome P450 3A4,12.6 µM (inconclusive)
O=C(Cc1ccccc1)NN1C(=O)/C(=C/c2c[nH]c3ccccc23)SC1=S,EC50,Streptokinase A,> 150 µM (not active)
same,EC50,[4],20.4 µM (active)
same,EC50,Streptococcus,> 150 µM (not active)
CO[C@@H]1COC(=O)C/C=C\[C@@H](C)[C@@H]2C=C[C@H](O)[C@@H](COC(=O)CCC[C@H]1C)O2,AC50,Cytochrome P450 3A4,3.98 µM (inconclusive)
O=c1c2ccc([N+](=O)[O-])cc2ncn1CCOc1cccc(Br)c1,EC50,[2],> 60 µM (not active)
same,EC50,[3],0.212 µM (active)
O=C(c1cccs1)N1N=C(c2ccccc2)CC1c1ccccc1O (configuration not stated),EC50,[2],> 60 µM (not active)
same,EC50,[3],2.84 µM (active)
CCCCC(=O)Nc1ccc(C(=O)NCCc2ccc(S(N)(=O)=O)cc2)cc1,EC50,[1],> 195 µM (not active)
NC(=S)N/N=C/c1cc([N+](=O)[O-])ccc1OCCOc1ccccc1,EC50,[1],52.6 µM (active)
CC1CC(C)CN(C(=O)c2ccc(CSc3nc4cc[nH]cc-4n3)cc2)C1 (configuration not stated),EC50,[1],> 195 µM (not active)
CCC(=O)Nc1cc(-c2nn(CC(=O)N3CCCCC3)c(=O)c3ccccc23)ccc1N1CCOCC1,EC50,[1],> 195 µM (not active)
O=c1c(-c2cc(F)cc(F)c2)nc2cnc(Oc3ccccc3)nc2n1C[C@H]1CCCO1,AC50,Cytochrome P450 3A4,15.8 µM (inconclusive)
O=C(c1cc(-c2ccncc2)nc2ccccc12)N1CCN(c2ccccn2)CC1,EC50,[2],10 µM (active)
same,EC50,[3],1.1 µM (active)
Cc1cc(C(F)(F)F)c(C#N)c(SCC(=O)Nc2nc3cc(Br)ccc3s2)n1,EC50,Streptokinase A,17.5 µM (active)
same,EC50,[4],3.48 µM (active)
same,EC50,Streptococcus,> 150 µM (not active)
O=C(NCCN1CCCCC1)c1ccc(I)cc1,AC50,Cytochrome P450 2C9,31.6 µM (inconclusive)
N#Cc1c(-c2ccccc2)nc(SCc2ccc(Cl)cc2)[nH]c1=O,EC50,Streptokinase A,5.41 µM (active)
Cc1cc(/C=C2\SC(=S)NC2=O)c(C)n1-c1cccc(O)c1,EC50,[4],6.9 µM (active)
same,EC50,Streptococcus,49.7 µM (inconclusive)
COc1ccc(-c2ccc3c(n2)CCCN3C[C@H](O)CN2CCCc3nc(-c4ccc(Br)cc4)ccc32)cc1,AC50,Cytochrome P450 2C9,3.98 µM (inconclusive) and 3.16 µM (inconclusive)
CCc1ccc(NC(S)=NC2CC3CCCC(C2)N3Cc2cccs2)cc1 (configuration not stated),EC50,[2],> 60 µM (not active)
same,EC50,[3],5.85 µM (active)
Fc1ccc(-c2[nH]ncc2-c2nnnn2-c2ccccc2)c(F)c1,AC50,Cytochrome P450 3A4,10 µM (inconclusive)
NC(=O)NC(=O)CSc1nc2sc(-c3ccccc3)cc2c(=O)n1-c1ccccc1,EC50,[4],2.21 µM (active)
same,EC50,Streptococcus,4.54 µM (active)
CN1CCN(c2ccncc2S(=O)(=O)N2CCN(C)CC2)CC1,AC50,Cytochrome P450 3A4,3.16 µM (inconclusive)
